Experimental data from patent US10774064B2 (Cadent Therapeutics, Inc., priority 2016, dated 2020).

Molecular target: T1, small-conductance Ca2+-activated K+ channels (SK channels, subtype 2) (Homo sapiens, UniProt Q9H2S1)
T1 construct: expressed in transfected cells; host or cells: HEK293
Experiment: whole-cell patch-clamp of ionic current through SK2 channels in HEK293 cells (SC100)
Type: cell-based
Conditions: concentration that increases the basal current by 100%; HEK293 cells expressing SK2 channels
Protocol: The biological activity was determined as follows. The ionic current through small-conductance Ca^2+-activated K^+ channels (SK channels, subtype 2) was measured using the whole-cell configuration of the patch-clamp technique in a patch-clamp set-up using HEK293 tissue culture cells expressing SK2 channels as described in Hougaard et al., British Journal of Pharmacology 151, 655-665, May 8, 2007, the entire teachings of which are incorporated herein by reference. In one aspect, a compound is defined to be an SK PAM if the compound increases current in this assay, for example, if the SC100 value of the compound is less than or equal to 10 μM as determined by this assay. The SC100 value is defined to be the concentration of compound that increases the basal current by 100%.

SC100	SMILES
++ (++ means 200 nM-1000 nM)	CC(=O)N1CCN(c2cc(NC3CCC(C(F)(F)F)CC3)nc(-n3nc(C)cc3C)n2)CC1 (stereo not drawn) [Compound 149, 1-(4-(2-(3,5-dimethyl-1H-pyrazol-1-yl)-6-((4-(trifluoromethyl)cyclohexyl)amino)pyrimidin-4-yl)piperazin-1-yl)ethan-1-one]
+ (+ means >1 uM)	Cc1cc(NC2CCC(F)(F)C2)nc(-n2ccc(C)n2)n1 (stereo not drawn) [Compound 150, N-(3,3-difluorocyclopentyl)-6-methyl-2-(3-methyl-1H-pyrazol-1-yl)pyrimidin-4-amine]
++ (++ means 200 nM-1000 nM)	Cc1ccn(-c2nc(NC3CCC(F)(F)CC3)cc(OC3CN(C(=O)OC(C)(C)C)C3)n2)n1 [Compound 151, tert-butyl 3-((6-((4,4-difluorocyclohexyl)amino)-2-(3-methyl-1H-pyrazol-1-yl)pyrimidin-4-yl)oxy)azetidine-1-carboxylate]
+ (+ means >1 uM)	Cc1cc(C)n(-c2nc(NC3CCC(F)(F)CC3)cc(C(C)(C)O)n2)n1 [Compound 152, 2-(6-((4,4-difluorocyclohexyl)amino)-2-(3,5-dimethyl-1H-pyrazol-1-yl)pyrimidin-4-yl)propan-2-ol]
+ (+ means >1 uM)	Cc1ccn(-c2cc(S(C)(=O)=O)cc(NC3CCC(F)(F)CC3)n2)n1 [Compound 153, N-(4,4-difluorocyclohexyl)-6-(3-methyl-1H-pyrazol-1-yl)-4-(methylsulfonyl)pyridin-2-amine]
+ (+ means >1 uM)	Cc1cc(C)n(-c2cccc(NC3CCC(F)(F)CC3)n2)n1 [Compound 154, N-(4,4-difluorocyclohexyl)-6-(3,5-dimethyl-1H-pyrazol-1-yl)pyridin-2-amine]
+ (+ means >1 uM)	Cc1ccn(-c2nc(NC3CCC(F)(F)CC3)cc(N3CC4C(N)C4C3)n2)n1 (stereo not drawn) [Compound 155, 3-(6-((4,4-difluorocyclohexyl)amino)-2-(3-methyl-1H-pyrazol-1-yl)pyrimidin-4-yl)-3-azabicyclo[3.1.0] hexan-6-amine]
++ (++ means 200 nM-1000 nM)	Cc1ccn(-c2nc(NC3CCC(F)(F)CC3)cc(NC3CC(C)(C)C3)n2)n1 [Compound 156, N4-(4,4-difluorocyclohexyl)-N6-(3,3-dimethylcyclobutyl)-2-(3-methyl-1H-pyrazol-1-yl)pyrimidine-4,6-diamine]
++ (++ means 200 nM-1000 nM)	Cc1ccn(-c2nc(NCC3(N(C)C)CCC3)cc(NC3CCC(F)(F)CC3)n2)n1 [Compound 157, N4-(4,4-difluorocyclohexyl)-N6-((1-(dimethylamino)cyclobutyl)methyl)-2-(3-methyl-1H-pyrazol-1-yl)pyrimidine-4,6-diamine]
++ (++ means 200 nM-1000 nM)	CCN1CCCCC(Nc2cc(NC3CCC(F)(F)CC3)nc(-n3ccc(C)n3)n2)C1 (stereo not drawn) [Compound 158, N4-(4,4-difluorocyclohexyl)-N6-(1-ethylazepan-3-yl)-2-(3-methyl-1H-pyrazol-1-yl)pyrimidine-4,6-diamine]
++ (++ means 200 nM-1000 nM)	Cc1cc(NC2CCC(F)(F)CC2)nc(-n2nc(C)cc2C)c1 [Compound 159, N-(4,4-difluorocyclohexyl)-6-(3,5-dimethyl-1H-pyrazol-1-yl)-4-methylpyridin-2-amine]
+ (+ means >1 uM)	CCN(c1nc(C)cc(-n2nc(C)cc2C)n1)C1CCC(F)(F)CC1 [Compound 160, N-(4,4-difluorocyclohexyl)-4-(3,5-dimethyl-1H-pyrazol-1-yl)-N-ethyl-6-methylpyrimidin-2-amine]
+ (+ means >1 uM)	CCN(c1cc(C)nc(-n2nc(C)cc2C)n1)C1CCC(F)(F)CC1 [Compound 161, N-(4,4-difluorocyclohexyl)-2-(3,5-dimethyl-1H-pyrazol-1-yl)-N-ethyl-6-methylpyrimidin-4-amine]
++ (++ means 200 nM-1000 nM)	Cc1cc(C)n(-c2nc(NC3CCC(F)(F)CC3)cc(C(F)(F)F)n2)n1 [Compound 162, N-(4,4-difluorocyclohexyl)-2-(3,5-dimethyl-1H-pyrazol-1-yl)-6-(trifluoromethyl)pyrimidin-4-amine]
+ (+ means >1 uM)	Cc1cc(C)n(-c2nccc(NC3CCC(F)(F)CC3)n2)n1 [Compound 163, N-(4,4-difluorocyclohexyl)-2-(3,5-dimethyl-1H-pyrazol-1-yl)pyrimidin-4-amine]
+ (+ means >1 uM)	Cc1cc(C)n(-c2nc(CF)cc(NC3CCC(F)(F)CC3)n2)n1 [Compound 165, N-(4,4-difluorocyclohexyl)-2-(3,5-dimethyl-1H-pyrazol-1-yl)-6-(fluoromethyl)pyrimidin-4-amine]
+ (+ means >1 uM)	Cc1cc(C)n(-c2cccc(N(C)C3CCC(F)(F)CC3)n2)n1 [Compound 166, N-(4,4-difluorocyclohexyl)-6-(3,5-dimethyl-1H-pyrazol-1-yl)-N-methylpyridin-2-amine]
+ (+ means >1 uM)	Cc1cc(C)n(-c2nc(NC3CCC(F)(F)C3)cc(C(F)(F)F)n2)n1 (stereo not drawn) [Compound 167, N-(3,3-difluorocyclopentyl)-2-(3,5-dimethyl-1H-pyrazol-1-yl)-6-(trifluoromethyl)pyrimidin-4-amine]
+ (+ means >1 uM)	Cc1cc(C)n(-c2nc(NC3CCC(F)(F)C3)cc(C(F)F)n2)n1 (stereo not drawn) [Compound 168, N-(3,3-difluorocyclopentyl)-6-(difluoromethyl)-2-(3,5-dimethyl-1H-pyrazol-1-yl)pyrimidin-4-amine]
++ (++ means 200 nM-1000 nM)	CCc1cc(-n2nc(C)cc2C)nc(NC2CCC(F)(F)CC2)n1 [Compound 169, N-(4,4-difluorocyclohexyl)-4-(3,5-dimethyl-1H-pyrazol-1-yl)-6-ethylpyrimidin-2-amine]
++ (++ means 200 nM-1000 nM)	Cc1cc(C)n(-c2cc(C(F)(F)F)cc(NC3CCC(F)(F)CC3)n2)n1 [Compound 170, N-(4,4-difluorocyclohexyl)-6-(3,5-dimethyl-1H-pyrazol-1-yl)-4-(trifluoromethyl)pyridin-2-amine]
++ (++ means 200 nM-1000 nM)	CCc1cc(NC2CCC(F)(F)CC2)nc(-n2nc(C)cc2C)n1 [Compound 171, N-(4,4-difluorocyclohexyl)-2-(3,5-dimethyl-1H-pyrazol-1-yl)-6-ethylpyrimidin-4-amine]
+ (+ means >1 uM)	Cc1cc(NC2CCC(F)(F)C2)nc(-n2nc(C)cc2C)n1 (stereo not drawn) [Compound 172]
++ (++ means 200 nM-1000 nM)	Cc1cc(C)n(-c2cc(C(F)F)nc(NC3CCC(F)(F)CC3)n2)n1 [Compound 173]
++ (++ means 200 nM-1000 nM)	Cc1cc(C)n(-c2cc(C#N)cc(NC3CCC(F)(F)CC3)n2)n1 [Compound 174, 2-((4,4-difluorocyclohexyl)amino)-6-(3,5-dimethyl-1H-pyrazol-1-yl)isonicotinonitrile]
++ (++ means 200 nM-1000 nM)	Cc1cc(C)n(-c2cc(C(N)=O)cc(NC3CCC(F)(F)CC3)n2)n1 [Compound 175, 2-((4,4-difluorocyclohexyl)amino)-6-(3,5-dimethyl-1H-pyrazol-1-yl)isonicotinamide]
+ (+ means >1 uM)	Cc1cc(C)n(-c2nc(CN3CCOCC3)cc(NC3CCC(F)(F)CC3)n2)n1 [Compound 176, N-(4,4-difluorocyclohexyl)-2-(3,5-dimethyl-1H-pyrazol-1-yl)-6-(morpholinomethyl)pyrimidin-4-amine]
